Laboratory results from the METLIN SMRT retention time set (Domingo-Almenara et al. 2019).

Test: gradient 5% acetonitrile 3 min, to 50% in 2 min, to 85% in 15 min, held 3 min, 100 µL/min
Settings: column: Zorbax Extend-C18 2.1 x 50 mm; eluents: water / acetonitrile, 0.1% formic acid
Procedure, shortened: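 Each retention time is based on an adduct peak selected computationally and verified by manual inspection. Measurements used HPLC–quadrupole time-of-flight mass spectrometry in positive and negative ionization mode on mixtures of ~100 pure standards. Chromatography ran on a Zorbax Extend-C18 column (2.1 × 50 mm, 1.8 μm) at 100 μL/min with water and acetonitrile, each containing 0.1% formic acid, and dead and dwell volumes of 40 μL and 900 μL.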

| Compound | RP-LC retention time [s] |
| --- | --- |
| Cc1ccc(NS(=O)(=O)c2cc3n(c2)CCCNC3=O)cc1 | 651 |
| Clc1ccc(-c2nc(NC3CCCCC3)c3ccccc3n2)cc1 | 924 |
| O=C(c1cccc(OC(F)(F)F)c1)N1CCN(c2cc(-c3cccs3)[nH]n2)CC1 | 828 |
| O=C(Nc1ccccc1)N1CCc2nn(Cc3ccccc3)c(=O)n2CC1 | 736 |
| Cc1ccc(-c2cc3c(=O)n(Cc4noc(CN5CCCC5)n4)ccn3n2)c(C)c1 | 686 |
| CSc1ccc(CNC(=O)C2CCN(c3ccc(N4CCOCC4)nn3)CC2)cc1 | 638 |
| CC1CCC(NC(=O)Cc2csc3nc(-c4ccccc4)cn23)CC1 (centres undefined) | 843 |
| CCNC(=O)C1CCN(C(=O)N2C[C@H]3C[C@H](C2)[C@H]2CCCC(=O)N2C3)CC1 | 599 |
| COc1ccc(S(=O)(=O)N2CC(F)(F)C[C@H]2c2nc(C)no2)cc1 | 851 |
| Cc1ccc(C(=O)NCCc2nc3cccnc3n2CC(C)C)cc1 | 716 |
| O=C(OCCN1CCN(C2=NS(=O)(=O)c3ccccc32)CC1)c1ccccc1 | 656 |
| C=CCN1C(=O)COc2ccc(-c3csc(NC(=O)c4ccc(Cl)cc4)n3)cc21 | 1100 |
| CCc1cccc(C)c1NC(=O)C1CCN(S(=O)(=O)c2ccc3c(c2)NC(=O)CO3)CC1 | 818 |
| COc1ccc(S(=O)(=O)N2C[C@@H](F)C[C@H]2C(=O)N2CCOCC2)cc1OC | 640 |
| COC(=O)c1c(C)[nH]c(C(=O)N2CCCC(C(=O)NCCC3=CCCCC3)C2)c1C (centres undefined) | 825 |
| O=C(Cc1nnc(-c2ccccc2)o1)N1CCSCC1 | 698 |
| Cc1ccc(N2C(=O)CN(S(C)(=O)=O)CC2(C)C(=O)NC2CCCCCC2)cc1F (centres undefined) | 905 |
| O=C(NCCCN1CCCC1=O)c1ccc(CN2CC(=O)N3CCCC3C2=O)cc1 (centres undefined) | 583 |
| Fc1cccc(Nc2ncnc3c2cnn3-c2ccccc2)c1 | 1020 |
| CC(C)CCNC(=O)C1CCCN(c2nnc3ccc(C(F)(F)F)cn23)C1 (centres undefined) | 829 |
| O=C(c1ccc(-c2ccsc2)nc1)N1CCN(C2CCCCC2)CC1 | 625 |
| Cc1ccc(CNC(=O)CCn2nc(C)c3c(C)n(-c4ccccc4)nc3c2=O)o1 | 734 |
| CCc1ccc(OCc2nc(CCN(C)C(=O)C3CCCC3)no2)cc1 | 1020 |

| Compound | RP-LC retention time [s] |
| --- | --- |
| COc1ccccc1CNS(=O)(=O)c1cc(-c2[nH]ncc2C(=O)N(C)C)oc1C | 666 |
| Cc1ncn(CC(=O)Nc2ccccc2Cl)c(=O)c1C | 668 |
| COC(=O)c1ccc(NC(=O)N2CCc3nc[nH]c3C2)cc1 | 591 |
| COc1cc(C(=O)N2CCCN(c3cc(=O)n(C)c(=O)n3C)CC2)cc(OC)c1OC | 624 |
| CCc1noc2nc(C)n(CC(=O)NCc3ccccc3C)c(=O)c12 | 782 |
| CNC(=O)N1CCCC(c2nc(C(C)C)no2)CCNC(=O)CC1 (centres undefined) | 606 |
| Cc1ccccc1S(=O)(=O)N1CCC2(CC1)CC(C)(O)CCO2 (centres undefined) | 778 |
| COc1ccc(CSc2nccc3c2ccn3CC(=O)NCc2ccc(OC)c(OC)c2)cc1 | 681 |
| O=C(NCC1CCCO1)c1cc2cccnc2n(Cc2ccccc2F)c1=O (centres undefined) | 932 |
| CCn1cc(S(=O)(=O)N2CCOc3ccc(NC(=O)C4CC4)cc3C2)cn1 | 734 |
| CCN1C(=O)c2ccccc2Oc2ccc(C(=O)NCCc3ccc(Cl)cc3)cc21 | 998 |
| Cc1nn(C)c(C)c1CCC(=O)N1CCN(c2ncccn2)CC1 | 564 |
| CCc1nn2c(CNS(=O)(=O)c3ccc(F)c(F)c3)c(-c3ccccc3)nc2s1 | 982 |
| COc1ncccc1C(=O)N1CCC(C(=O)Nc2nccs2)CC1 | 605 |
| COc1ccc(NS(=O)(=O)c2ccc(N3C(=O)CCC3=O)cc2)c(OC)c1 | 703 |
| CCC(=O)Nc1c(C)noc1/C=C/c1ccc(S(=O)(=O)N2CCC(C)CC2)s1 | 919 |
| COC(=O)c1ccccc1NC(=O)Cn1nc2nc(N3CCCC(C)C3)ccn2c1=O (centres undefined) | 863 |
| COc1c(C(=O)NCCN2CCC(C)CC2)sc2ccc(Cl)cc12 | 710 |
| Cc1ccccc1CNC(=O)Cn1c(C)nc2onc(C)c2c1=O | 752 |
| COc1ccc(-c2noc(C3CC(=O)N(c4cc(C)ccc4C)C3)n2)cc1 (centres undefined) | 988 |
| CCCC(NC(=O)CCc1ccccc1)C(=O)Nc1nc2ccccc2[nH]1 (centres undefined) | 718 |
| COc1ccc(-c2cc3nn(CC(=O)Nc4ccc(F)c(Cl)c4)c(=O)n3c(C)n2)cc1 | 992 |
| Cc1sc(NC(=O)CCn2c(=O)sc3ccccc32)nc1-c1ccc(Cl)cc1 | 1110 |

| Compound | RP-LC retention time [s] |
| --- | --- |
| CC1=C(c2ccccc2)S(=O)(=O)N=C1N1CCCN(C(=O)c2ccccc2Cl)CC1 | 811 |
| COc1cccc(CC(=O)N2CCc3nc(-c4ccc(Cl)cc4)ncc3C2)c1 | 1050 |
| COc1ccccc1-c1cc(C(=O)N2CCN(c3cc(=O)n(C)c(=O)n3C)CC2)[nH]n1 | 665 |
| COc1ccc(CN2CCC(C3CCN(S(C)(=O)=O)CC3)C2)cc1OC (centres undefined) | 580 |
| CNC(=O)c1ccc2c(c1)CCCN2C(=O)c1cccc(Cl)c1 | 746 |
| Cc1ccn2cc(-c3ccc(NC(=O)c4cccs4)cc3)nc2n1 | 636 |
| O=C(c1nnc(-c2ccc(S(=O)(=O)N3CCOCC3)cc2)o1)N1CCCC1 | 734 |
| O=C(NCc1ccccc1Cl)C1COCC(=O)N1Cc1ccccc1 (centres undefined) | 724 |
| CC(=O)c1ccc(S(=O)(=O)N(Cc2cccs2)Cc2cccn2C)cc1 | 983 |
| O=C(C1=NN(Cc2cccc(Cl)c2)c2ccccc2S1(=O)=O)N1CCOCC1 | 856 |
| Cc1ccc(-n2c(N3CCCC(C(=O)Nc4ccccc4)C3)nc3ccsc3c2=O)cc1 (centres undefined) | 966 |
| O=C(NCC1(c2ccccc2)CCOCC1)c1cccc(C(F)(F)F)c1 | 852 |
| O=c1ccc(S(=O)(=O)N2CCCCC2)cn1Cc1ccccc1 | 851 |
| O=C(NC1CC1)c1cccnc1N1CCSCC1 | 623 |
| O=C(NC1CCCCCC1)C1CCCN(S(=O)(=O)c2c[nH]c(C(=O)N3CCCCCC3)c2)C1 (centres undefined) | 926 |
| CCN1CCn2c(nc3cc(C(=O)NCC4CCCCC4)ccc32)C1=O | 702 |
| O=C(Nc1cccc(C(F)(F)F)c1)c1cnc(-c2ccc(F)cc2)nc1-c1ccncc1 | 1060 |
| CN(C)c1ccc(CNC(=O)C2CCN(S(=O)(=O)c3ccc4[nH]c(=O)ccc4c3)CC2)cc1 | 580 |
| O=C(NCc1cccs1)C1CCCN(c2nc3ccsc3c(=O)n2-c2ccccc2)C1 (centres undefined) | 816 |
| Fc1cccc(CNc2cc(-n3cccn3)ncn2)c1 | 854 |
| CN1CCN(c2nc3c(c(Nc4ccccc4)n2)C(=O)CC(C)(C)C3)CC1 | 713 |
| Cn1nc(-c2cccc(NC(=O)c3ccc4ccccc4n3)c2)ccc1=O | 829 |
| Cc1ccc(-n2nc(CO)c(C(=O)NC3CCCC3)n2)cc1 | 1030 |

| Compound | RP-LC retention time [s] |
| --- | --- |
| CCc1cccc(NC(=O)C2CCN(S(=O)(=O)c3ccc4c(c3)CCCC(=O)N4)CC2)c1 | 735 |
| COc1cccc(CN2CCC(N3CC4(CCCCC4)C3c3ccccc3)CC2)c1OC (centres undefined) | 624 |
| O=C(C1CCCN(c2ncnc3c2nc2n3CCCCC2)C1)N1CC=C(c2ccccc2)CC1 (centres undefined) | 922 |
| CCn1ccc2cc(S(=O)(=O)N3CCCC(C(=O)NC4CCCCC4)C3)ccc21 (centres undefined) | 1010 |
| CCOC(=O)c1c(C)[nH]c(C(=O)N2CCC(CC(=O)N3CCOCC3)CC2)c1C | 675 |
| CCOc1ccc(CC(=O)N2CCCC2c2nc(-c3ccc(OC)c(OC)c3)no2)cc1OCC (centres undefined) | 925 |
| CC(=O)N1CCCSc2ccc(S(=O)(=O)N3CCC(CN4CCc5ccccc5C4)CC3)cc21 | 671 |
| Cc1ccc(CNC(=O)Cn2c(=O)cc(-c3nc(C)no3)c3ccccc32)cc1 | 857 |
| Cc1cccc(-c2nnc(-c3cc(S(=O)(=O)N4CCOCC4)ccc3Cl)o2)c1 | 992 |
| CC(C)(C)C(=O)N1CCCC1COc1ccc(C(=O)N2CCCC2)cc1 (centres undefined) | 647 |
| CS(=O)(=O)NCC1CCC(C(=O)Nc2ccc3c(c2)Cc2ccccc2-3)CC1 (centres undefined) | 840 |
| O=C(Cn1c(=O)oc2ccccc21)N1CCC2(CC1)NCCc1c2[nH]c2ccccc12 | 597 |
| OCc1nnn(-c2ccccc2)c1CO | 642 |
| CC(=O)c1ccc(NS(=O)(=O)c2ccc(-c3c(C)noc3C)cc2)cc1 | 813 |
| Cc1ccc(NC(=O)C2CCN(S(=O)(=O)c3ccc4c(c3)sc(=O)n4C(C)C)CC2)cc1 | 942 |
| Cc1ccc(-c2nc(-c3cccc(-c4ccnn4C)c3)no2)cc1C | 1300 |
| Cc1ccc(CNC(=O)c2cccc(C3CCCN(C(=O)NC(C)C)C3)c2)o1 (centres undefined) | 833 |
| Cn1ccc2cc(S(=O)(=O)N3CCCC(C(=O)NC4CCCCCCC4)C3)ccc21 (centres undefined) | 1080 |
| O=C(C1=NN(c2ccc(F)cc2)c2ccc(F)cc2S1(=O)=O)N1CCOCC1 | 829 |
| Cc1ccc(CNC(=O)Cn2cnc3c(c(C)c(C)n3-c3ccc(Cl)cc3)c2=O)o1 | 930 |
